# Data published in patent publication US12077503B2, “Substituted cyclic amides and their use as herbicides” (FMC CORPORATION, priority 2015, dated 2024).
# How the values were obtained:
# Format in all cases: in vivo
# [1] = system: barnyardgrass (Echinochloa crus-galli); experiment: Test G Pre-Emergence Protocol; conditions: Echinochloa crus-galli, pre-emergence, 312 h, evaluated after 13 days
# Method in brief: (§1)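 One day after sowing, pots are treated with a spray of test compound formulated in acetone/water 50:50 plus 0.5% Tween 20, giving 15.625, 62.5 or 250 g/ha. Evaluation on a 0–100 damage scale follows 13 days of glasshouse growth.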
# [2] = system: velvetleaf (Abutilon theophrasti); experiment: Test G Pre-Emergence Protocol; conditions: Abutilon theophrasti, pre-emergence, 312 h, evaluated after 13 days
# Method in brief: as §1
# [3] = system: ivy-leaved morning glory (Ipomoea hederacea); experiment: Test G Pre-Emergence Protocol; conditions: Ipomoea, pre-emergence, 312 h, evaluated after 13 days
# Method in brief: as §1
# [4] = system: giant foxtail (Setaria faberi); experiment: Test G Pre-Emergence Protocol; conditions: Setaria faberi, pre-emergence, 312 h, evaluated after 13 days
# Method in brief: as §1
# [5] = system: redroot pigweed (Amaranthus retroflexus); experiment: Test G Pre-Emergence Protocol; conditions: Amaranthus retroflexus, pre-emergence, 312 h, evaluated after 13 days
# Method in brief: as §1
# corn (Zea mays) [6] = experiment: Test G Pre-Emergence Protocol; conditions: Zea mays, pre-emergence, 312 h, evaluated after 13 days
# Method in brief: as §1
# [7] = system: barnyardgrass (Echinochloa crus-galli); experiment: Test G Post-Emergence Protocol; conditions: Echinochloa crus-galli, post-emergence, 312 h
# Method in brief: (§2)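 Sow in soil; grow 8 d (24/16 °C, 14 h light, 65% humidity); spray 15.625/62.5/250 g/ha in acetone:water 50:50 + 0.5% Tween 20; grow on, water twice daily; score damage 0–100 at 13 d.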
# [8] = system: velvetleaf (Abutilon theophrasti); experiment: Test G Post-Emergence Protocol; conditions: Abutilon theophrasti, post-emergence, 312 h
# Method in brief: as §2
# [9] = system: ivy-leaved morning glory (Ipomoea hederacea); experiment: Test G Post-Emergence Protocol; conditions: Ipomoea, post-emergence, 312 h
# Method in brief: as §2
# [10] = system: giant foxtail (Setaria faberi); experiment: Test G Post-Emergence Protocol; conditions: Setaria faberi, post-emergence, 312 h
# Method in brief: as §2
# [11] = system: redroot pigweed (Amaranthus retroflexus); experiment: Test G Post-Emergence Protocol; conditions: Amaranthus retroflexus, post-emergence, 312 h
# Method in brief: as §2
# corn (Zea mays) [12] = experiment: Test G Post-Emergence Protocol; conditions: Zea mays, post-emergence, 312 h
# Method in brief: as §2
structure (smiles),measurement,setting,value
CN1C[C@@H](c2ccc(C(F)(F)F)cc2)[C@H](C(=O)Nc2cccc(Cl)c2C#N)C1=O (racemic) [Compound 1645],pest or weed control at 15.625 g/ha,"[1]; 15.625 g ai/ha, read-out: Barnyard grass damage rating (100=total damage to plant; 0=no damage to plant)",0%
same,pest or weed control at 62.5 g/ha,"[1]; 62.5 g ai/ha, 100=total damage to plant, 0=no damage to plant, read-out: plant damage rating, Barnyardgrass",40%
same,pest or weed control at 250 g/ha,"[1]; 250 g ai/ha, read-out: Barnyardgrass damage rating (100=total damage to plant; 0=no damage to plant)",50%
same,pest or weed control at 15.625 g/ha,"[2]; 15.625 g ai/ha, read-out: Velvetleaf damage rating (100=total damage to plant; 0=no damage to plant)",0%
same,pest or weed control at 62.5 g/ha,"[2]; 62.5 g ai/ha, 100=total damage to plant, 0=no damage to plant, read-out: plant damage rating, Velvetleaf",0%
same,pest or weed control at 250 g/ha,"[2]; 250 g ai/ha, read-out: Velvetleaf damage rating (100=total damage to plant; 0=no damage to plant)",10%
same,pest or weed control at 15.625 g/ha,"[3]; 15.625 g ai/ha, read-out: Morning-glory, Ivy-leaved damage rating (100=total damage to plant; 0=no damage to plant)",0%
same,pest or weed control at 62.5 g/ha,"[3]; 62.5 g ai/ha, 100=total damage to plant, 0=no damage to plant, read-out: plant damage rating, Morningglory, Ivy-leaved",0%
same,pest or weed control at 250 g/ha,"[3]; 250 g ai/ha, read-out: Morningglory, Ivy-leaved damage rating (100=total damage to plant; 0=no damage to plant)",0%
same,pest or weed control at 15.625 g/ha,"[4]; 15.625 g ai/ha, read-out: Foxtail, Giant damage rating (100=total damage to plant; 0=no damage to plant)",0%
same,pest or weed control at 62.5 g/ha,"[4]; 62.5 g ai/ha, 100=total damage to plant, 0=no damage to plant, read-out: plant damage rating, Foxtail, Giant",30%
same,pest or weed control at 250 g/ha,"[4]; 250 g ai/ha, read-out: Foxtail, Giant damage rating (100=total damage to plant; 0=no damage to plant)",60%
same,pest or weed control at 15.625 g/ha,"[5]; 15.625 g ai/ha, read-out: Pigweed, Redroot damage rating (100=total damage to plant; 0=no damage to plant)",0%
same,pest or weed control at 62.5 g/ha,"[5]; 62.5 g ai/ha, 100=total damage to plant, 0=no damage to plant, read-out: plant damage rating, Pigweed, Redroot",10%
same,pest or weed control at 250 g/ha,"[5]; 250 g ai/ha, read-out: Pigweed, Redroot damage rating (100=total damage to plant; 0=no damage to plant)",10%
same,plant injury at 15.625 g/ha,"corn (Zea mays) [6]; 15.625 g ai/ha, read-out: Corn damage rating (100=total damage to plant; 0=no damage to plant)",0%
same,plant injury at 62.5 g/ha,"corn (Zea mays) [6]; 62.5 g ai/ha, 100=total damage to plant, 0=no damage to plant, read-out: plant damage rating, Corn",0%
same,plant injury at 250 g/ha,"corn (Zea mays) [6]; 250 g ai/ha, read-out: Corn damage rating (100=total damage to plant; 0=no damage to plant)",0%
same,pest or weed control at 15.625 g/ha,"[7]; 15.625 g ai/ha, evaluated after 13 days (100=total damage to plant; 0=no damage to plant), read-out: Barnyardgrass damage rating",0%
same,pest or weed control at 62.5 g/ha,"[7]; 62.5 g ai/ha, evaluated after 13 days, read-out: Barnyardgrass damage rating (100=total damage to plant; 0=no damage to plant)",20%
same,pest or weed control at 250 g/ha,"[7]; 250 g ai/ha, evaluated after 13 days, read-out: damage to plant, Barnyardgrass (100=total damage to plant; 0=no damage to plant)",70%
same,pest or weed control at 15.625 g/ha,"[8]; 15.625 g ai/ha, evaluated after 13 days (100=total damage to plant; 0=no damage to plant), read-out: Velvetleaf damage rating",0%
same,pest or weed control at 62.5 g/ha,"[8]; 62.5 g ai/ha, evaluated after 13 days, read-out: Velvetleaf damage rating (100=total damage to plant; 0=no damage to plant)",0%
same,pest or weed control at 250 g/ha,"[8]; 250 g ai/ha, evaluated after 13 days, read-out: damage to plant, Velvetleaf (100=total damage to plant; 0=no damage to plant)",0%
same,pest or weed control at 15.625 g/ha,"[9]; 15.625 g ai/ha, evaluated after 13 days (100=total damage to plant; 0=no damage to plant), read-out: Morningglory, Ivy-leaved damage rating",0%
same,pest or weed control at 62.5 g/ha,"[9]; 62.5 g ai/ha, evaluated after 13 days, read-out: Morningglory, Ivy-leaved damage rating (100=total damage to plant; 0=no damage to plant)",0%
same,pest or weed control at 250 g/ha,"[9]; 250 g ai/ha, evaluated after 13 days, read-out: damage to plant, Morningglory, Ivy-leaved (100=total damage to plant; 0=no damage to plant)",0%
same,pest or weed control at 15.625 g/ha,"[10]; 15.625 g ai/ha, evaluated after 13 days (100=total damage to plant; 0=no damage to plant), read-out: Foxtail, Giant damage rating",0%
same,pest or weed control at 62.5 g/ha,"[10]; 62.5 g ai/ha, evaluated after 13 days, read-out: Foxtail, Giant damage rating (100=total damage to plant; 0=no damage to plant)",70%
same,pest or weed control at 250 g/ha,"[10]; 250 g ai/ha, evaluated after 13 days, read-out: damage to plant, Foxtail, Giant (100=total damage to plant; 0=no damage to plant)",80%
same,pest or weed control at 15.625 g/ha,"[11]; 15.625 g ai/ha, evaluated after 13 days (100=total damage to plant; 0=no damage to plant), read-out: Pigweed, Redroot damage rating",0%
same,pest or weed control at 62.5 g/ha,"[11]; 62.5 g ai/ha, evaluated after 13 days, read-out: Pigweed, Redroot damage rating (100=total damage to plant; 0=no damage to plant)",40%
same,pest or weed control at 250 g/ha,"[11]; 250 g ai/ha, evaluated after 13 days, read-out: damage to plant, Pigweed, Redroot (100=total damage to plant; 0=no damage to plant)",40%
same,plant injury at 15.625 g/ha,"corn (Zea mays) [12]; 15.625 g ai/ha, evaluated after 13 days (100=total damage to plant; 0=no damage to plant), read-out: Corn damage rating",0%
same,plant injury at 62.5 g/ha,"corn (Zea mays) [12]; 62.5 g ai/ha, evaluated after 13 days, read-out: Corn damage rating (100=total damage to plant; 0=no damage to plant)",0%
same,plant injury at 250 g/ha,"corn (Zea mays) [12]; 250 g ai/ha, evaluated after 13 days, read-out: damage to plant, Corn (100=total damage to plant; 0=no damage to plant)",0%
